This note sets out measurements from US20130040935A1, “CYCLIC KETO-ENOLS FOR THERAPY” (BAYER INTELLECTUAL PROPERTY GMBH, priority 2010, published 2013).

Test [1] deals with T1, human ACC1 (acetyl-coenzyme A carboxylase alpha transcript variant 1) (Homo sapiens, UniProt Q13085).
T1 construct: FLAG (C); made in house; host or cells: baculovirus-infected insect cells (Hi5)
Nature of the test: Human ACC1 enzyme assay, Assay B1 (ADP-Glo). In kind it is biochemical. In general terms: ADP-Glo turns the ADP formed in a reaction into a luminescent signal.
Procedure: (§1) Essentially, the enzyme activity is measured by quantifying the adenosine diphosphate (ADP) formed as a byproduct of the enzyme reactions using the ADP-Glo™ detection system from Promega. In this test, initially the adenosine triphosphate (ATP) not consumed in the enzyme reaction is converted quantitatively with an adenylate cyclase (“ADP-GLO reagent”) into cAMP, the adenylate cyclase is then stopped and (“kinase detection reagent”) the ADP formed is subsequently converted into ATP, which is converted in a luciferase-based reaction into a glow luminescence signal.
The concentration of the hACC1 was adapted to the respective activity of the enzyme and adjusted such that the assay operated in the linear range. […] The amount of light emitted was taken as a measure for the amount of ADP formed and thus for the enzyme activity of the hACC1.

The test system of a further test is MCF7. The test is described as follows: Cell proliferation assay (CellTiter-Glo, 96 h), MCF7. The settings on record: Homo sapiens. The class given is cell-based. The method, then:
In accordance with the invention, the substances were tested in cell-based assays for the ability of the substances of inhibiting tumour cell proliferation after a 96-hour incubation with the substance. Cell viability was tested using the CellTiter-Glo® luminescent cell viability assay (Promega). The cells were sown at a density of 2000-5000 cells/well (depending on the cell line) in 100 μl growth medium on 96-well microtitre plates. For each cell line examined, cells were sown on a separate plate to determine the luminescence at t=0 hours and t=96 hours. After overnight incubation at 37° C., the luminescence values for the t=0 samples were determined. The dose plates for the t=96 hours points in time were treated with substances diluted with growth medium. The cells were then incubated at 37° C. for 96 hours, and the luminescence values for the t=96 hours sample were then determined. For data analysis, the t=0 values were subtracted from the t=96 hour values for treated and untreated samples. The differences in luminescence in percent between substance-treated samples and control values were used to determine the growth inhibition in percent.
The substances were tested in the following cell lines which represent the stated indications in an exemplary manner: […]
Background: ATP-based viability assays read luminescence as a measure of living cells.

In test [2] the target is human ACC2 (acetyl-coenzyme A carboxylase 2) (Homo sapiens, UniProt O00763). Nature of the test: Human ACC2 enzyme assay, Assay B2 (ADP-Glo).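 Note: human ACC2 activity read as ADP product, detected by luciferase glow luminescence after residual ATP removal, enzyme near 2 ng/µl in linear range, detection steps at 22 °C.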
Procedure: The hACC2-inhibitory action of the substances of the present invention was measured in the hACC2 assay described in the paragraphs below.
as §1
The concentration of the hACC2 was adapted to the respective activity of the enzyme and adjusted such that the assay operated in the linear range. Typical concentrations were in the range of 2 ng/μl. […] The amount of light emitted was taken as a measure for the amount of ADP formed and thus for the enzyme activity of the hACC2.
[3] abbreviates: Assay B1, read-out: ACC 1 (=B1) IC50.
[4] abbreviates: MCF7, Table 9a, 96-hour incubation.
[5] abbreviates: Assay B1, ADP-Glo, read-out: ACC 1 (=B1) IC50.

Read-outs that look alike come from different tables or passages of the source.

human ACC2 (acetyl-coenzyme A carboxylase 2), sequence (O00763 27-2458 limits assumed): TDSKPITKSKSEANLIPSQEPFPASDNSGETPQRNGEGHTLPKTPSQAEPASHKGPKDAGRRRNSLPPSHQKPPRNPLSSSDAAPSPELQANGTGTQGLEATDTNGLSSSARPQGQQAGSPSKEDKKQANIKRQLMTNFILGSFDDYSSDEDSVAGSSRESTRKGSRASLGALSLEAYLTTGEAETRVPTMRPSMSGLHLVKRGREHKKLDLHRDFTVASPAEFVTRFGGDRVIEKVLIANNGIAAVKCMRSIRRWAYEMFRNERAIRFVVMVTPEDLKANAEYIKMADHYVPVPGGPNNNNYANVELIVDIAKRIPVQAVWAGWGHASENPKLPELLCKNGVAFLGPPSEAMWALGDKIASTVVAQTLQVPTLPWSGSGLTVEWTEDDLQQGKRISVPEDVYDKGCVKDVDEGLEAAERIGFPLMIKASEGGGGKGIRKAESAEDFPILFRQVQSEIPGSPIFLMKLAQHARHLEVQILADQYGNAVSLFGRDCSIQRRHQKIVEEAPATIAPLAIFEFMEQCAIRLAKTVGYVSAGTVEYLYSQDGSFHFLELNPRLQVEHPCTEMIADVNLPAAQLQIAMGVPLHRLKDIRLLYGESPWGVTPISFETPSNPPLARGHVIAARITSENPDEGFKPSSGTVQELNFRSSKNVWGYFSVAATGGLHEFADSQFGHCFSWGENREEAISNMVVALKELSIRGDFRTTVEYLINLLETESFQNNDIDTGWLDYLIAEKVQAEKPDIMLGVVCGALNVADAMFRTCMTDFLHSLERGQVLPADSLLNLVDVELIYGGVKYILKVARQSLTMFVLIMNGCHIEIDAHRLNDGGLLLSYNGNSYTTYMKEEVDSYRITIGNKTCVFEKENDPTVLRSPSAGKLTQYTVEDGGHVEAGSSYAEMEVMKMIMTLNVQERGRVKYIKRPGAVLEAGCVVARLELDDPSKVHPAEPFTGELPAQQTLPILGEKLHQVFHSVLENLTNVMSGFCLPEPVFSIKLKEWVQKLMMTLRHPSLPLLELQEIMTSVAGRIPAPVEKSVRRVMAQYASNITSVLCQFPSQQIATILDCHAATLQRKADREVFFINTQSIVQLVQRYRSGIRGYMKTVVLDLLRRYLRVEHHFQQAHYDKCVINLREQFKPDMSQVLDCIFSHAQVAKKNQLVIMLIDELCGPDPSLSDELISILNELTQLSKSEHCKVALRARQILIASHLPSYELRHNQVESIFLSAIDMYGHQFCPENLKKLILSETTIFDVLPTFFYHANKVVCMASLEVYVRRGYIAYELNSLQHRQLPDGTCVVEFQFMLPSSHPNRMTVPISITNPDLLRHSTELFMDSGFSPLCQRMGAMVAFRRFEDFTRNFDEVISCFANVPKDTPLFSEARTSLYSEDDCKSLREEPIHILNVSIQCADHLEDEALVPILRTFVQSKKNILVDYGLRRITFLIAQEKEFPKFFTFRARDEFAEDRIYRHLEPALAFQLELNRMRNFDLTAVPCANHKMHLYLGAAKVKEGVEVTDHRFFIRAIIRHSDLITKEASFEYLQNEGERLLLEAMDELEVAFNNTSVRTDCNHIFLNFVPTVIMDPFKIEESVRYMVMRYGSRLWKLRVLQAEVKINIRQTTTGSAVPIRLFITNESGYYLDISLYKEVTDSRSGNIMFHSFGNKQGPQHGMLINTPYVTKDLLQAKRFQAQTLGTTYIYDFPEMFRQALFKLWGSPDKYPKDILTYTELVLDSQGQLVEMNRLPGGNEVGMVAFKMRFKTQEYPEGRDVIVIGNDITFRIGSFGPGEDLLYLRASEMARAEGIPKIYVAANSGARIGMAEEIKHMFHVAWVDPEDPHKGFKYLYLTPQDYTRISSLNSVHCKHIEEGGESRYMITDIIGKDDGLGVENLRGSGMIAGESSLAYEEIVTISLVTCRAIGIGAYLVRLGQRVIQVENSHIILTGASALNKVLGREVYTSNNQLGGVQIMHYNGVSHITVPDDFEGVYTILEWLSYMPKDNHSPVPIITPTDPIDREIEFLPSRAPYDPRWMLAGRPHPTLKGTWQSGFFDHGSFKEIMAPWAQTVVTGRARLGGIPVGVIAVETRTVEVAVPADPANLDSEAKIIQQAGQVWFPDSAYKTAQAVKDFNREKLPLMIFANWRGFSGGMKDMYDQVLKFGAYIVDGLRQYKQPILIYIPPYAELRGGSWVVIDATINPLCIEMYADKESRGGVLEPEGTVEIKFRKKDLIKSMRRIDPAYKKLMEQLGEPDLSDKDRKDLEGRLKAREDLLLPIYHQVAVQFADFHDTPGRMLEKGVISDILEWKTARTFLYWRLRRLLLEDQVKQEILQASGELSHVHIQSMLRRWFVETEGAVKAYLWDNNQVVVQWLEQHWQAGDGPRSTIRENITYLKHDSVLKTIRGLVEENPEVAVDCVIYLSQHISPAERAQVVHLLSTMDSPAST

As to `Cc1ccc(-c2ccc(Cl)cc2)cc1C1=C(O)CC2(CCCCC2)CC1=O` [7-2, 3-(4′-chloro-4-methylbiphenyl-3-yl)-4-hydroxyspiro[5.5]undec-3-en-2-one], the IC50 (usually the point on the concentration scale where inhibition reaches its midpoint) was determined as 501 nM in test [1] (setting [3]) and 1210 nM in the test with MCF7 (setting [4]). As for `Cc1ccc(-c2ccc(Cl)cc2)cc1C1C(=O)N(C)OC(C)(C)C1=O` (centres unmarked) [11-1, 4-(4′-chloro-4-methylbiphenyl-3-yl)-2,6,6-trimethyl-1,2-oxazinane-3,5-dione], the figures for the IC50 (in test [1]; in the test with MCF7 (MCF7 cells)) were 19200 nM and 3330 nM, respectively.

Take `Cc1ccc(-c2ccc(Cl)cc2)cc1C1=C(O)CC(C)(C)N(C)C1=O` [9-4, 3-(4′-chloro-4-methylbiphenyl-3-yl)-4-hydroxy-1,6,6-trimethyl-5,6-]: the IC50 came out at 2540 nM in test [1] (setting [3]) and 3440 nM with MCF7 (MCF7 cells).

As to `Cc1ccc(-c2ccc(Cl)cc2)cc1C1=C(O)CC(C)(C)NC1=O` [9-1, 3-(4′-chloro-4-methylbiphenyl-3-yl)-4-hydroxy-6,6-dimethyl-5,6-dihydropyridin-2(1H)-one], the IC50 in test [1] (setting [3]) was 3760 nM; in the test on MCF7 (MCF7 cells), 1260 nM.

For `Cc1ccc(-c2ccc(Cl)cc2)cc1C1=C(O)C2(CCCCC2)SC1=O` [3-2, 3-(4′-chloro-4-methylbiphenyl-3-yl)-4-hydroxy-1-thiaspiro[4.5]dec-3-en-2-one], the IC50 with MCF7 (setting [4]) was found to be 461 nM. Regarding `COC1CCC2(CC1)SC(=O)C(c1cc(-c3ccc(Cl)cc3)ccc1C)=C2O` (centres unmarked) [3-1, 3-(4′-chloro-4-methylbiphenyl-3-yl)-4-hydroxy-8-methoxy-1-thiaspiro[4.5]dec-3-en-2-one], the IC50 was 1410 nM in test [1] and 15500 nM in test [2]. Regarding `COC1CCCC2(C1)OC(=O)C(c1cc(-c3ccc(Cl)cc3)c(C)cc1C)=C2O` (centres unmarked) [2-11, 3-(4′-chloro-4,6-dimethylbiphenyl-3-yl)-4-hydroxy-7-methoxy-1-oxaspiro[4.5]dec-3-en-2-one], the IC50 in test [1] (setting [5]) came out at 1260 nM; in test [2], 12400 nM.

As to `Cc1ccc(-c2ccc(C(F)(F)F)cc2)cc1-c1c(O)c2ccc(Cl)cc2[nH]c1=O` [9-6, 7-chloro-4-hydroxy-3-[4-methyl-4′-(trifluoromethy)biphenyl-3-yl]quinolin-2(1H)-one], the IC50 in test [1] (setting [3]) was 1280 nM; in test [2] it was above 20000 nM. In the case of `CCOC1CCC2(CC1)NC(=O)C(c1cc(-c3ccc(Cl)cc3)ccc1C)=C2O` (centres unmarked) [1-28, 3-(4′-chloro-4-methylbiphenyl-3-yl)-8-ethoxy-4-hydroxy-1-azaspiro[4.5]dec-3-en-2-one], the IC50 is 438 nM in test [1] (setting [3]) and 2110 nM in test [2].

Consider `COC1CCCC2(C1)NC(=O)C(c1c(C)ccc(-c3ccc(Cl)cc3)c1C)=C2O` (centres unmarked) [1-72, 3-(4′-chloro-2,4-dimethylbiphenyl-3-yl)-4-hydroxy-7-methoxy-1-azaspiro[4.5]dec-3-en-2-one], for which the IC50 in test [1] was 1140 nM; in test [2], 14900 nM. For the molecule `CO[C@H]1CC[C@]2(CC1)NC(=O)C(c1c(C)cc(C)c(-c3ccc(F)cc3)c1C)=C2O` [1-42, (5s,8s)-3-(4′-fluoro-2,4,6-trimethylbiphenyl-3-yl)-4-hydroxy-8-methoxy-1-azaspiro[4.5]dec-3-en-2-one], the midpoint of inhibition with MCF7 (MCF7, Table 7, 96-hour incubation), the IC50, lay at 1280 nM. For `Cc1cc(C)c(-c2ccc(Cl)cc2)cc1C1=C(O)C2(CCCOC2)OC1=O` (centres unmarked) [2-46, 3-(4′-chloro-4,6-dimethylbiphenyl-3-yl)-4-hydroxy-1,7-dioxaspiro[4.5]dec-3-en-2-one], the IC50 in test [1] (setting [5]) came out at 420 nM; in test [2], 5260 nM.

In the case of `Cc1ccc(-c2ccc(Cl)cc2)cc1C1=C(O)C2(CCCCC2)OC1=O` [2-10, 3-(4′-chloro-4-methylbiphenyl-3-yl)-4-hydroxy-1-oxaspiro[4.5]dec-3-en-2-one], the IC50 worked out at 67 nM in test [1] (setting [5]) and 4700 nM in test [2]. In the case of `Cc1ccc(-c2cccc(Cl)c2)cc1C1=C(O)C2(CCCCCC2)OC1=O` [2-50, 3-(3′-chloro-4-methylbiphenyl-3-yl)-4-hydroxy-1-oxaspiro[4.6]undec-3-en-2-one], the values for the IC50 in test [1] and in test [2] were 1300 nM and 15400 nM, respectively.

The molecule `COC1CCC2(CC1)OC(=O)C(c1c(C)ccc(-c3ccc(Cl)cc3)c1C)=C2O` (centres unmarked) [2-34, 3-(4′-chloro-2,4-dimethylbiphenyl-3-yl)-4-hydroxy-8-methoxy-1-oxaspiro[4.5]dec-3-en-2-one] had a concentration for half-maximal inhibition (IC50) with MCF7 (MCF7 cells) of 429 nM. As for `Cc1ccc(-c2cccc(Cl)c2)cc1C1=C(O)C2(CCCCC2)CC1=O` [6-3, 3-(3′-chloro-4-methylbiphenyl-3-yl)-4-hydroxyspiro[4.5]dec-3-en-2-one], the IC50 in test [1] (setting [3]) was 1170 nM; in test [2], above 20000 nM. On to `COCCO[C@@H]1CCC[C@]2(C1)NC(=O)C(c1cc(-c3ccc(Cl)cc3)ccc1Cl)=C2O` (relative stereo) [1-74, rel-(5R,7R)-3-(4,4′-dichlorobiphenyl-3-yl)-4-hydroxy-7-(2-methoxyethoxy)-1-azaspiro[4.5]dec-3-en-2-one], for which the IC50 was 2420 nM in test [1] and above 20000 nM in test [2].

In the case of `Cc1ccc(-c2ccc(Cl)cc2)c(C)c1C1=C(O)C2(CCC3(CC2)OCC(C)O3)NC1=O` (centres unmarked) [1-62, 11-(4′-chloro-2,4-dimethylbiphenyl-3-yl)-12-hydroxy-2-methyl-1,4-dioxa-9-azadispiro[4.2.4.2]tetradec-11-en-10-one], the IC50 in test [1] (setting [3]) was determined as 385 nM; in test [2] it was 5740 nM. For the molecule `Cc1cc(C)c(-c2c(O)c3ccc(Cl)cc3[nH]c2=O)cc1-c1ccc(Cl)cc1` [9-12, 7-chloro-3-(4′-chloro-4,6-dimethyl-biphenyl-3-yl)-4-hydroxyquinolin-2(1H)-one], the IC50 amounted to 376 nM in test [1] (setting [3]) and 2090 nM in test [2]. `Cc1ccc(-c2ccc(Cl)cc2)cc1C1=C(O)C2(CCCC2)CC1=O` [6-4, 3-(4′-chloro-4-methylbiphenyl-3-yl)-4-hydroxyspiro[4.4]non-3-en-2-one]: the half-inhibitory concentration (IC50) was 218 nM in test [1] (setting [3]) and 4630 nM in test [2]. For `Cc1ccc(-c2ccc(Cl)cc2)c(C)c1C1=C(O)C2(CCCC2)OC1=O` [2-2, 3-(4′-chloro-2,4-dimethylbiphenyl-3-yl)-4-hydroxy-1-oxaspiro[4.4]non-32--en-2-one], the IC50 is 2360 nM in test [1] and above 20000 nM in test [2]. On to `O=C1OC2(CCC3(CCCO3)CC2)C(O)=C1c1cc(-c2ccc(Cl)cc2)ccc1Cl` (centres unmarked) [2-27, 3-(4,4′-dichlorobiphenyl-3-yl)-4-hydroxy-1,9-dioxadispiro[4.2.4.2]tetradec-3-en-2-one], for which the IC50 in test [1] was determined as 801 nM; in test [2], 7010 nM. With `Cc1ccc(-c2ccc(Cl)cc2)cc1C1=C(O)C2(CCCC2)NC1=O` [1-85, 3-(4′-chloro-4-methylbiphenyl-3-yl)-4-hydroxy-1-azaspiro[4.4]non-3-en-2-one], the IC50 in test [1] (setting [3]) is 251 nM; in test [2], 9210 nM. As for `Cc1ccc(-c2ccc(Cl)cc2)cc1C1=C(O)C2(CCC3(CC2)OCCO3)OC1=O` [2-15, 11-(4′-chloro-4-methylbiphenyl-3-yl)-12-hydroxy-1,4,9-trioxadispiro[4.2.4.2]tetradec-11-en-10-one], the values for the IC50 in test [1] (setting [5]) and in test [2] were 111 nM and 8020 nM, respectively.

Take `Cc1ccc(-c2ccc(Cl)cc2)cc1C1=C(O)CN(C(C)C)C1=O` [1-17, 3-(4′-chloro-4-methylbiphenyl-3-yl)-4-hydroxy-1-(propan-2-yl)-1,5-dihydro-2H-pyrrol-2-one]: the IC50 in test [1] worked out at 553 nM; in test [2], 11400 nM. As for `CCCC1CCC2(CC1)NC(=O)C(c1cc(-c3ccc(Cl)cc3)ccc1C)=C2O` (centres unmarked) [1-83, 3-(4′-chloro-4-methylbiphenyl-3-yl)-4-hydroxy-8-propyl-1-azaspiro[4.5]dec-3-en-2-one], the IC50 in test [1] (setting [3]) stood at 582 nM; in test [2], 1880 nM.

With `O=C1NC2(CCC3(CC2)OCCO3)C(O)=C1c1cc(-c2ccc(Cl)cc2)ccc1Cl` [1-61, 11-(4,4′-dichlorobiphenyl-3-yl)-12-hydroxy-1,4-dioxa-9-azadispiro[4.2.4.2]tetradec-11-en-10-one], the figures for the IC50 in test [1] and in test [2] were 88 nM and 9040 nM, respectively. In the case of `CCOCCO[C@@H]1CC[C@@]2(C1)NC(=O)C(c1cc(-c3ccc(Cl)cc3)ccc1C)=C2O` (relative stereo) [1-50, rel-(5R,7S)-3-(4′-chloro-4-methylbiphenyl-3-yl)-7-(2-ethoxyethoxy)-4-hydroxy-1-azaspiro[4.4]non-3-en-2-one], the IC50 in test [1] (setting [3]) is 11800 nM; in test [2] it was above 20000 nM. Take `Cc1ccc(-c2ccc(Cl)cc2)cc1C1=C(O)C2(CCC3(CC2)OCC(C)O3)NC1=O` (centres unmarked) [1-63, 11-(4′-chloro-4-methylbiphenyl-3-yl)-12-hydroxy-2-methyl-1,4-dioxa-9-azadispiro[4.2.4.2]tetradec-11-en-10-one]: the IC50 in test [1] was 277 nM; in test [2], 7270 nM. `COCC1CCC2(CC1)OC(=O)C(c1cc(-c3ccc(Cl)cc3)ccc1Cl)=C2O` (centres unmarked) [2-16, 3-(4,4′-dichlorobiphenyl-3-yl)-4-hydroxy-8-(methoxymethyl)-1-oxaspiro[4.5]dec-3-en-2-one]: the IC50 was determined as 138 nM in test [1] and 5310 nM in test [2].

For the molecule `Cc1ccc(-c2ccc(Cl)cc2)cc1C1=C(O)C2(CCC3(CC2)OCCO3)NC1=O` [1-60, 11-(4′-chloro-4-methylbiphenyl-3-yl)-12-hydroxy-1,4-dioxa-9-azadispiro[4.2.4.2]tetradec-11-en-10-one], the IC50 turned out to be 189 nM in test [1] and 5990 nM in test [2].
